From patent US10849912B2, “Method of sensitizing cancer cells to the cytotoxic effects of apoptosis inducing ligands in cancer treatment” (The United States of America, as represented by the …, priority 2016, dated 2020)
Entries after “also recorded” stand apart in the source; their conditions may differ.

Tests used:
[1] = system: SK MEL28 melanoma cells; experiment: Titration of sensitization to TRAIL, MTS cell viability; format: cell-based, human; settings: compound 0.97 nM-2000 nM for 3 or 24 h, then 10 ng/ml TRAIL for 24 h
Experimental: (§1) For all experiments, cells (ACHN (renal carcinoma), M14, SK MEL28, and Malme (human melanoma lines)) were plated at a concentration of 5000 cells/well overnight. All treatments were carried out the following day.
(§2) For titration experiments in the presence or absence of TRAIL, cells were treated with various doses of compound 8 (0.97 nM-2000 nM) for 3 or 24 h followed by 10 ng/ml of recombinant TRAIL for 24 h. Cell viability was assessed by addition of MTS during the last four hours of TRAIL treatment. The results with SK MEL28, M14, and Malme cells are depicted in FIGS. 7A-7C, respectively.

[2] = system: M14 melanoma cells; experiment: as above; format: cell-based, human; settings: compound 0.97 nM-2000 nM for 3 or 24 h, then 10 ng/ml TRAIL for 24 h
Experimental: as §1, §2
(§3) Titration experiments were conducted as described in Example 5.

[3] = system: Malme 3M melanoma cells; experiment: as above; format: cell-based, human; settings: Malme (Malme 3M); compound 0.97 nM-2000 nM for 3 or 24 h, then 10 ng/ml TRAIL for 24 h
Experimental: as §1, §2, §3

[4] = system: renal carcinoma cell lines (ACHN, SN12C, Caki-1, TK-10, UO-31); experiment: Sensitization of renal carcinoma cells to TRAIL apoptosis, percentage decrease in cell number; format: cell-based; settings: for percentage decrease in cell number, agent alone: absence of TRAIL, FIGS. 13B-17B, 13C-17C
From the text: (§4) This example provides a comparison of the activities of compound 1 with the Smac mimetics birinapant, GDC-0152, and LCL-161 and with the Bcl-2 antagonists ABT-199 and ABT-737 for sensitization of renal carcinoma and melanoma cells to TRAIL apoptosis.
(§5) The results for compound 1 are shown graphically in FIGS. 13A-22A. The results for Smac mimetics birinapant, GDC-0152, and LCL-161 are shown graphically in FIGS. 13B-22B. The results for Bcl-2 antagonists ART-199 and ABT-737 are shown graphically in FIGS. 13C-22C, FIGS. 13A-22A, 13B-22B, and 13C-22C depict the percentage decrease in cell number as a function of concentration. For FIGS. 13B-22B and 13C-22C, the dose response curve was obtained for one of the listed agents.

[5] = system: melanoma cells (M14, SK-MEL-28, UACC-62, SK-MEL-5, MALME-3M); experiment: Sensitization of melanoma cells to TRAIL apoptosis, percentage decrease in cell number; format: cell-based; settings: for percentage decrease in cell number, agent alone: absence of TRAIL, FIGS. 18B-22B, 18C-22C
From the text: as §4, §5

[6] = system: human M14 melanoma; experiment: Xenograft model of human M14 melanoma, intratumoral compound; format: in vivo, athymic nude mice; settings: 20 mg/Kg, once per week for four weeks
Experimental: Female nude athymic mice were obtained from Charles River Laboratory. All mice were kept under specific pathogen-free conditions with water and food given ad libitum. All experiments with mice were performed in compliance with the principles and procedures outlined in the National Institutes of Health Guide for the Care and Use of Animals and were approved by the National Cancer Institute at Frederick Animal Care and Use Committee.
For in vivo treatments with compounds 9 and 1, compound 9 and compound 1 stock solutions (0.5M and 0.25M in DMSO respectively) were diluted in 33% Trappsol and DMSO at a ratio of 7:1 and administered intratumorally or at the base of tumor in a volume of 20 ul at a dose of 20 mg/Kg of body weight. […]
Mice (nude athymic, female, 6-8-week old, n=5), were implanted subcutaneously with 0.2 ml of M14 melanoma cells (1×10^6/mouse) into the right flank. […] The appearance and growth of tumors were monitored twice every week. The greatest longitudinal diameter (length) and the greatest transverse diameter (width) of a palpable tumor were measured to the nearest 0.1 mm using a caliper. Tumor volume (mm^3) was calculated by the ellipsoidal formula Tumor volume=[…]. […]

[7] = system: cFLIP; experiment: Western blot of cFLIP levels in ACHN cells treated with compound, with or without poly IC; format: cell-based; settings: compound 125 nM-1 μM overnight, FIGS. 5A and 5B
Experimental: (§6) ACHN cells were grown in RPMI (RPMI, 5% FBS, Pen-strep, NEAA, HEPES, Glutamax, Sodium Pyruvate, 2ME), 2×10^6 cells/well were plated in 6 well plates and grown overnight, on day 2 compound 9 or compound 1 were added, including duplicate plates and incubated overnight. On day 3 either media or 10 ug/ml polyIC was added for 3 hours. Cells were lysed in RIPA buffer (30 mM Tris-HCL pH 7.5, 150 mM NaCl, 10% glycerol, 1% Triton X-100) supplemented with Pierce Halt Protease and Phosphatase Inhibitor and 40 μM ZVAD, the RIPA buffer also contained Pierce Universal Nuclease. Protein concentrations were measured using the Pierce BCA Protein Assay (Thermo Fisher Scientific, Waltham, Mass.), Twenty micrograms of each sample was run on a Bolt Gel (Thermo Fisher Scientific), transferred to a PVDF membrane using the BioRad Trans-Blot Turbo Transfer System (BioRad, Hercules, Calif.), briefly placed in Methanol, dried, rehydrated, and blocked in Pierce Start Block buffer. […]

[8] = system: caspase-8; experiment: Western blot of caspase-8 activation in ACHN cells treated with compound, with or without poly IC; format: cell-based; settings: compound 125 nM-1 μM overnight, then 10 ug/ml polyIC for 3 hours
Experimental: as §6

[9] = system: SKMEL28 melanoma cells; experiment: Effect of pan caspase inhibitor ZVAD-FMK on growth inhibition by poly IC plus compound, MTS; format: cell-based, human; settings: compound 1000 nM for 16-18 h, ZVAD-FMK 40 μM for 2 h, poly IC 20-24 h
Experimental: To assess the effects of pan caspase inhibitor ZVAD, SKMEL28 melanoma cells were treated with compounds 9 and 1 for 16-18 h. Subsequently, ZVAD-FMK (40 μM) or DMSO was added for 2 h followed by 20-24 h incubation in the presence or absence of poly IC. Cell viability was assessed by addition of MTS during the last four hours of poly IC treatment.
The growth inhibition as a function of poly IC concentration at 1000 nM concentrations of compounds 9 and 1 was determined, and the results shown in FIGS. 10A and 10B, respectively.

[10] = system: SK MEL28 melanoma cells; experiment: Effect of bafilomycin on sensitization to poly IC, MTS cell viability; format: cell-based, human; settings: 50 nM bafilomycin A, poly IC 36-48 h
Experimental: as §1
To inhibit TLR 3 signaling, cells were treated with compound 9, compound 1, or compound 10 for 4 hours followed by addition of 50 nM of Balfilomycin A or DMSO for 2.5 h. Subsequently poly IC was added for 36-48 h and cell viability was assessed by addition of MTS during the last four hours of Poly IC treatment. The results for compounds 9, 1, and 10 are depicted in FIG. 6.

For “biotinylated derivative of 4β-hydroxywithanolide E [compound 8]”, the “sensitization to apoptosis by TRAIL” value [1] was “sensitized”, the “sensitization to apoptosis by TRAIL” value [2] was “sensitized; also recorded: more potent than compound 1 at lower concentrations” and the “sensitization to apoptosis by TRAIL” value [3] was “sensitized; also recorded: more potent than compound 1 at lower concentrations”.
With `CC[C@H](NC(=O)[C@H](C)NC)C(=O)N1C[C@@H](O)C[C@H]1Cc1c(-c2[nH]c3cc(F)ccc3c2C[C@@H]2C[C@H](O)CN2C(=O)[C@H](CC)NC(=O)[C@H](C)NC)[nH]c2cc(F)ccc12` [birinapant] the “percentage decrease in cell number, agent alone” value (shortened to “percentage decrease”) [4] was “little to no response due to concentration” and the “percentage decrease” value [5] was “little to no response due to concentration”.
`CC1=C(C)C(=O)OC([C@](C)(O)[C@]2(O)CC[C@@]3(O)C4CC=C5C(=O)C=CC(=O)[C@]5(C)C4CC[C@]23C)C1` (stereo partly shown) gave a melting point of 176 to 178 °C.
In the case of `CC1(C)CCC(CN2CCN(c3ccc(C(=O)NS(=O)(=O)c4ccc(NCC5CCOCC5)c([N+](=O)[O-])c4)c(Oc4cnc5[nH]ccc5c4)c3)CC2)=C(c2ccc(Cl)cc2)C1` [ABT-199], the “percentage decrease” value [4] is reported as “little to no response due to concentration” and the “percentage decrease” value [5] is reported as “little to no response due to concentration”.
For `CC(=O)OC[C@]12CC[C@H]3[C@@H](C[C@H]4O[C@]45CC=CC(=O)[C@]35C)[C@]1(O)CC[C@@]2(O)[C@@](C)(O)[C@H]1CC(C)=C(C)C(=O)O1` [compound 1, physachenolide C], the “observation at the tumor site accompanying decrease in tumor burden” value [6] was “massive tumor destruction and scabbing at the tumor site”, the “tumor growth and volume (tumor burden)” value ([6]; versus vehicle control, ****P<0.0001, 20 mg/kg) was “significant reduction in tumor growth and volume” and the “reducing the levels of cFLIPL+S” value [7] was “more active than compound 9”. The “promoting caspase-8 activation in response to subsequent exposure to poly IC” value [8] was “more active than compound 9”, the “sensitization to TRAIL apoptosis” value ([4]; 50 ng/mL TRAIL) was “superior sensitizer” and the “reduction in cell number by poly IC in combination with compound, in presence of ZVAD-FMK” value [9] was “completely blocked”. The “apoptosis by the compound and poly IC combination after incubation with bafilomycin-A1” value [10] was “significantly reduced subsequent apoptosis” and the “sensitization to TRAIL apoptosis” value ([5]; 25 ng/mL TRAIL) was “significant activity”.
With `CN[C@@H](C)C(=O)N[C@H](C(=O)N1CCC[C@H]1c1nc(C(=O)c2ccc(F)cc2)cs1)C1CCCCC1` [LCL-161] the “percentage decrease” value [4] was “little to no response due to concentration” and the “percentage decrease” value [5] was “little to no response due to concentration”.
With `CN(C)CC[C@H](CSc1ccccc1)Nc1ccc(S(=O)(=O)NC(=O)c2ccc(N3CCN(Cc4ccccc4-c4ccc(Cl)cc4)CC3)cc2)cc1[N+](=O)[O-]` [ABT-737] the “percentage decrease” value [4] was “little to no response due to concentration” and the “percentage decrease” value [5] was “little to no response due to concentration”.
For `CN[C@@H](C)C(=O)N[C@H](C(=O)N1CCC[C@H]1C(=O)Nc1snnc1-c1ccccc1)C1CCCCC1` [GDC-0152], the “percentage decrease” value [4] was “little to no response due to concentration” and the “percentage decrease” value [5] was “little to no response due to concentration”.
